From ChEMBL document CHEMBL5143508, “Design, synthesis and biological evaluation of novel o-aminobenzamide derivatives as potential anti-gastric cancer agents in vitro and in vivo” (Eur J Med Chem, 2022)
“And” between values parts separate entries of the source, which are not always exact repeats. Equal entries are not always repeated. The source made the active and inactive calls. The rule behind the calls is not given here.

Tests used:
HGC-27 [1] = assay: Induction of apoptosis in human HGC-27 cells assessed as necrotic cells at 2 uM incubated for 48 hrs by annexin V FITC/propidium iodide staining based flow cytometry (reference value: 1.24 %); format: functional
HGC-27 [2] = assay: Induction of apoptosis in human HGC-27 cells assessed as upregulation in cleaved PARP expression at 0.5 to 8 uM incubated for 48 hrs by Western blot analysis; format: functional, cell-based; details: dose 0.5-8 µM
HGC-27 [3] = assay: Induction of apoptosis in human HGC-27 cells assessed as necrotic cells at 8 uM incubated for 48 hrs by annexin V FITC/propidium iodide staining based flow cytometry (reference value: 1.24 %); format: functional
MGC-803 [4] = assay: Induction of apoptosis in human MGC-803 cells assessed as viable cells at 2.5 uM incubated for 48 hrs by annexin V FITC/propidium iodide staining based flow cytometry (reference value: 94.4 %); format: functional; details: read-out: Activity
HGC-27 [5] = assay: Induction of apoptosis in human HGC-27 cells assessed as upregulation in cytochrome c expression at 0.5 to 8 uM incubated for 48 hrs by Western blot analysis; format: functional, cell-based; details: dose 0.5-8 µM
MGC-803 [6] = assay: Induction of cell cycle arrest in human MGC-803 cells assessed as reduction in accumulation of cells at G2/M phase at 2.5 to 10 uM incubated for 24 hrs by PI staining based flow cytometry analysis; format: functional; details: dose 2.5-10 µM
HGC-27 [7] = assay: Induction of apoptosis in human HGC-27 cells assessed as late apoptotic cells at 2 uM incubated for 48 hrs by annexin V FITC/propidium iodide staining based flow cytometry (reference value: 5.14 %); format: functional
HGC-27 [8] = assay: In vivo induction of cell cycle arrest in human HGC-27 cells xenografted in BALB/c mouse assessed as increase in p27 expression at 75 to 150 mg/kg, po bid administered for 19 days and measured by immunohistochemical analysis; format: functional, organism-based; details: dose 75-150 mg/kg, time 19.0 day
in vitro = details: human, GES1 cells
Description: Cytotoxicity against human GES1 cells assessed as inhibition of cell growth incubated for 72 hrs by MTT assay

[9] = Toxicity in BALB/c mouse xenografted with human HGC-27 cells assessed as RBC level at 75 mg/kg, po bid for 19 days; format: organism-based, Erythrocyte; details: in vivo, 456 h, time 19 day
HGC-27 [10] = assay: Induction of cell cycle arrest in human HGC-27 cells assessed as upregulation of p21 expression at 0.1 to 1.6 uM incubated for 48 hrs by Western blot analysis; format: functional, cell-based; details: dose 0.1-1.6 µM
[11] = Toxicity in BALB/c mouse xenografted with human HGC-27 cells assessed as platelet distribution width at 150 mg/kg, po bid for 19 days; format: organism-based; details: in vivo, 456 h, time 19 day
[12] = Toxicity in BALB/c mouse xenografted with human HGC-27 cells assessed as platelet level at 75 mg/kg, po bid for 19 days; format: organism-based; details: in vivo, 456 h, time 19 day
[13] = Toxicity in BALB/c mouse xenografted with human HGC-27 cells assessed as granulocyte level at 75 mg/kg, po bid for 19 days; format: organism-based; details: in vivo, 456 h, time 19 day
[14] = Toxicity in BALB/c mouse xenografted with human HGC-27 cells assessed as lymphocyte level at 150 mg/kg, po bid for 19 days; format: organism-based; details: in vivo, 456 h, time 19 day
[15] = Toxicity in BALB/c mouse xenografted with human HGC-27 cells assessed as lymphocyte level at 75 mg/kg, po bid for 19 days; format: organism-based; details: in vivo, 456 h, time 19 day
MGC-803 [16] = assay: cells; format: functional, cell-based; details: Homo sapiens, MGC-803, 72 h
Description: Cytotoxicity against human MGC-803 cells assessed as inhibition of cell growth incubated for 72 hrs by MTT assay

[17] = Toxicity in BALB/c mouse xenografted with human HGC-27 cells assessed as mean platelet volume at 150 mg/kg, po bid for 19 days; format: organism-based; details: in vivo, 456 h, time 19 day
HGC-27 [18] = assay: In vivo induction of cell cycle arrest in human HGC-27 cells xenografted in BALB/c mouse assessed as decrease in CDK2 expression at 75 to 150 mg/kg, po bid administered for 19 days and measured by immunohistochemical analysis; format: functional, organism-based; details: dose 75-150 mg/kg, time 19.0 day
HGC-27 [19] = assay: Induction of apoptosis in human HGC-27 cells assessed as upregulation in cleaved caspase-9 expression at 0.1 to 1.6 uM incubated for 48 hrs by Western blot analysis; format: functional, cell-based; details: dose 0.1-1.6 µM
HGC-27 [20] = assay: Induction of apoptosis in human HGC-27 cells assessed as upregulation in cleaved PARP expression at 0.1 to 1.6 uM incubated for 48 hrs by Western blot analysis; format: functional, cell-based; details: dose 0.1-1.6 µM
[21] = Toxicity in BALB/c mouse xenografted with human HGC-27 cells assessed as red blood cell distribution width at 75 mg/kg, po bid for 19 days; format: organism-based; details: in vivo, 456 h, time 19 day
[22] = Toxicity in BALB/c mouse xenografted with human HGC-27 cells assessed as RBC level at 150 mg/kg, po bid for 19 days; format: organism-based, Erythrocyte; details: in vivo, 456 h, time 19 day
[23] = Toxicity in BALB/c mouse xenografted with human HGC-27 cells assessed as monocyte level at 75 mg/kg, po bid for 19 days; format: organism-based; details: in vivo, 456 h, time 19 day
HGC-27 [24] = assay: Induction of apoptosis in human HGC-27 cells assessed as early apoptotic cells at 0.4 uM incubated for 48 hrs by annexin V FITC/propidium iodide staining based flow cytometry (reference value: 0.66 %); format: functional
HGC-27 [25] = assay: Induction of apoptosis in human HGC-27 cells assessed as late apoptotic cells at 0.4 uM incubated for 48 hrs by annexin V FITC/propidium iodide staining based flow cytometry (reference value: 5.14 %); format: functional
MGC-803 [26] = assay: Induction of cell cycle arrest in human MGC-803 cells assessed as reduction in accumulation of cells at S phase at 5 to 20 uM incubated for 24 hrs by PI staining based flow cytometry analysis; format: functional; details: dose 5-20 µM
[27] = Acute toxicity in Kunming mouse assessed as effect on liver pathology at 1000 mg/kg, po measured after 14 days; format: organism-based; details: in vivo, 336 h, time 14 day
HGC-27 [28] = assay: Induction of apoptosis in human HGC-27 cells assessed as early apoptotic cells at 0.1 uM incubated for 48 hrs by annexin V FITC/propidium iodide staining based flow cytometry (reference value: 0.66 %); format: functional
MGC-803 [29] = assay: Induction of apoptosis in human MGC-803 cells assessed as viable cells at 20 uM incubated for 48 hrs by annexin V FITC/propidium iodide staining based flow cytometry (reference value: 94.4 %); format: functional; details: read-out: Activity
[30] = Acute toxicity in Kunming mouse assessed as effect on heart pathology at 1000 mg/kg, po measured after 14 days; format: organism-based; details: in vivo, 336 h, time 14 day
MGC-803 [31] = assay: Induction of apoptosis in human MGC-803 cells assessed as early apoptotic cells at 20 uM incubated for 48 hrs by annexin V FITC/propidium iodide staining based flow cytometry (reference value: 0.42 %); format: functional
BGC-823 = assay: cells; format: functional, cell-based; details: Homo sapiens, BGC-823, 72 h
Description: Cytotoxicity against human BGC-823 cells assessed as inhibition of cell growth incubated for 72 hrs by MTT assay

HGC-27 [32] = assay: Induction of apoptosis in human HGC-27 cells assessed as necrotic cells at 0.4 uM incubated for 48 hrs by annexin V FITC/propidium iodide staining based flow cytometry (reference value: 1.24 %); format: functional
[33] = Toxicity in BALB/c mouse xenografted with human HGC-27 cells assessed as hematocrit level at 75 mg/kg, po bid for 19 days; format: organism-based; details: in vivo, 456 h, time 19 day
HGC-27 [34] = assay: Induction of apoptosis in human HGC-27 cells assessed as viable cells at 0.4 uM incubated for 48 hrs by annexin V FITC/propidium iodide staining based flow cytometry (reference value: 93.0 %); format: functional; details: read-out: Activity

SMILES: O=C(NCc1ccc(NC(=O)c2ccccc2N2CCCC2)cc1)OCc1cccnc1
- Activity (HGC-27 [1]): 12.1%
- Activity (HGC-27 [2]): Active
- Activity (HGC-27 [3]): 11.1%
- viability at 2.5 µM (MGC-803 [4]): 80.3%
- Activity (HGC-27 [5]): Active
- Activity (MGC-803 [6]): Active
- Activity (HGC-27 [7]): 55.9%

SMILES: O=C(NCc1ccc(NC(=O)c2cc(F)ccc2N2CCCC2)cc1)OCc1cccnc1
- Activity (HGC-27 [8]): Active
- IC50 at 72 h (in vitro): 90.2 µM
- Activity [9]: 11.74 10^12/L
- Activity (HGC-27 [10]): Active
- Activity [11]: 17.45
- Activity [12]: 1057.33 10^9/L
- Activity [13]: 91.4%
- Activity [14]: 5.77 10^9/L and 7.2%
- Activity [15]: 5.03 10^9/L and 6.57%
- IC50 (MGC-803 [16]): 10.7 µM
- Activity [17]: 6.28 fL
- Activity (HGC-27 [18]): Active
- Activity (HGC-27 [19]): Active
- Activity (HGC-27 [20]): Active
- Activity [21]: 24.4%
- Activity [22]: 10.34 10^12/L
- Activity [23]: 1.57 10^9/L and 2.03%
- Activity (HGC-27 [24]): 2.63%
- Activity (HGC-27 [25]): 21.3%
- Activity (MGC-803 [26]): Active
- Activity [27]: Non-Toxic
- Activity (HGC-27 [28]): 1.43%
- viability at 20 µM (MGC-803 [29]): 60.7%
- Activity [30]: Non-Toxic
- Activity (MGC-803 [31]): 16.8%
- IC50 (BGC-823): 14.8 µM
- Activity (HGC-27 [32]): 5.43%
- Activity [33]: 58.3%
- viability at 0.4 µM (HGC-27 [34]): 70.7%
